Entries after “also recorded” stand apart in the source; their conditions may differ.
Columns and labels:
66 cl.4-GFP cells [1] = experiment: Visible lung metastases of 66 cl.4-GFP tumors in Balb/c mice; format: in vivo; settings: daily aerosol for 17 days; counted visually at sacrifice
Excerpt: (§1) Metastastic lesions in the five lung lobes were counted visually at time of sacrifice. Fluorescent green micro-metastatic cancer cell colonies in the left lung lobe and lymph nodes were counted using a Nikon fluorescence microscope (TE-200) with a 20 x objective (200 x magnification) and Image-Pro Plus (version 4.1; Media Cybernetics, Silver Spring, MD) software associated with the microscope. Fluorescent lesions were separated into three size grouping: <5 µm , 5-10 µm and >10 µm.

66 cl.4-GFP tumors = experiment: TUNEL assay for apoptosis in tumor sections in vivo; design: species or system Balb/c mice
Excerpt: Deparaffinized sections (5 µm) of tumor tissue were used to assess apoptosis using reagents supplied in the ApopTag In Situ Apoptosis Detection kit (Intergen, Purchase, NY) according to the manufacturer's instructions. Nuclei that stained brown were scored as positive for apoptosis and those that stained blue were scored as negative. At least sixteen 400X microscopic fields were scored per tumor. Data are presented as the mean ± S. E number of apoptotic cells counted in three separate tumors from each group. Pictures of tumor tissue were taken at 1000X magnification.

66 cl.4-GFP cells [2] = experiment: Apoptosis by morphological evaluation of DAPI-stained nuclei; format: cell-based, mouse; settings: for apoptosis: three days
66 cl.4-GFP cells [3] = experiment: Colony-forming assay; format: cell-based, mouse; settings: 10 days
Description: 66 cl.4-GFP cells were seeded at 600 cells per 35 X 1 0 mm tissue culture plate (Nunclon, Rochester, NY) and allowed to adhere over night at 37° C. […] Treatments were left on the cells for 10 days without change of media. After 10 days, media were removed and plates were washed with PBS three times. Cells were stained for 30 min with 1% methylene blue in PBS and colonies > 0.5 mm manually counted.

[4] = Body weight and long term safety of α-TEA treated mice; format: in vivo, Balb/c mice
Description: 50 mice were assigned (10 per group) to aerosol treatment, aerosol control, oral treatment, oral control, or to the no treatment group so that the average tumor volume for all groups were closely matched. […] Tumors were measured using calipers every other day, and volumes were calculated using the formula: volume (mm^3) = [width (mm)^2 X length (mm)] /2. Body weights were determined weekly.
Balb/c mice, 10/group (4 groups, 40 mice total) are inoculated with 200,000 66 cl.4 GFP cells as described on day 0. Nine days after tumor inoculation, treatments groups are initiated: Aerosol Treatment (TX) = aerosol delivery of α-TEA liposome (5 mg/mouse)/daily through day 23. Aerosol Control = Aerosol delivery of liposome composition only daily through day 23. Gavage treatment = gavage administration of α-TEA at 5 mg/mouse in ethanol/peanut oil daily through day 23. Gavage control = gavage administration of ethanol/peanut oil only through day 23. Mice were weighed at the initiation of treatment (day 9) and thereafter on days 13, 16, 20, and 23 (Fig. 6). Data are presented as the mean +/- standard deviation.

[5] = Serum and tissue levels of α-TEA after liposomal aerosol treatment (HPLC); format: in vivo, balb/c mice; settings: aerosol 5 mg/mouse over 30 minutes
Description: Tumors were removed during necropsy and half of each tumor was quick frozen in liquid nitrogen then stored at -70°C until HPLC analyses were performed. Tumors were processed for HPLC analyses by homogenization and hexane extraction of lipids. Briefly, weighed tumors were placed in 5 ml disposable conical-bottom tubes (Sarstedt, Newton, NC) along with 5-7 Kimble solid glass beads (4mm), 1 ml 1% SDS in water, 1-2 ml 100% ethanol and 1 ml hexane. Samples were then mixed using a Crescent Wig-L-Bug (model 3110B Densply International, Elgin, IL) twice for 1 min each. Samples were then centrifuged for 5 min at 1,000 rpm, and the organic layer collected, the aqueous layer was mixed with hexane again, vortexed, centrifuged, and processed twice more before the organic layer was dried down under nitrogen. Samples were run immediately. Reverse phase HPLC analyses with fluorometric detection of the tocopherol ether analog were conducted as described by Tirmenstein, M.A., et al. (23).
Eight mice are treated via pulmonary aerosol delivery with 40mg of α-TEA (5 mg/mouse) in 6 ml liposomes. The mice inhaled the aerosol over a period of 30 minutes until delivery was complete. Mice are sacrificed 0, 2, 6, or 24 hours after the treatment ended. Serum and tissue levels of α-TEA are determined by HPLC analyses (Fig. 7).

66 cl.4-GFP cells [6] = experiment: Fluorescent lung micrometastases of 66 cl.4-GFP tumors in Balb/c mice; format: in vivo; settings: for Inhibition (%) Lung Metastases: Liposomal; for numbers of micrometastases (± S. E.): α-TEA EtOH/peanut oil by gavage 5 mg/day
Excerpt: as §1
(§2) At sacrifice, the left lung lobe of each mouse of flash frozen and saves for detection of GFP expressing micrometatstic lesions via fluorescent microscopy.

66 cl.4-GFP cells [7] = experiment: Fluorescent lymph node micrometastases of 66 cl.4-GFP tumors in Balb/c mice; format: in vivo
Excerpt: as §1, §2

MDA-MB-435 GFP FL cells = experiment: Tumor growth of MDA-MB-435 GFP FL breast cancer cells in nude mice; format: in vivo, Nu/Nu athymic nude mice; settings: liposome gavage, 8 mg compound per day, 2 times per day; day 27
Description: Animals were given a total of 8 mg compound per day. […] Alpha-TEA liposome gavage reduced tumor growth by 68, 75, 78, 79 and 79% on days 27, 29, 31, 33, and 35, respectively (Fig. 15).
Animals were gavaged 3ppm methylselenocysteine (MSC) in water, α-TEA in liposome via aerosol, or gavaged 10 mg/kg b.w. trans-resveratrol (t-RES) in first 1:1, EtOH: physiological saline, and starting at day 24, 6.5% EtOH and 93.5% Neobee oil. A combination group was treated with each of the above three compounds, and a control group was treated with aerosolized liposome, 100 µl water, and 50 µl of the t-Res solvent. Animals were treated seven days a week, for 35+ days.

[8] = tested on: A2780 cisplatin-sensitive cell line; experiment: Apoptosis of A2780 ovarian cancer cells in culture; format: cell-based, human; settings: treated in culture with α-TEA
[9] = tested on: cp-70 human ovarian cancer cells; experiment: Apoptosis of cp-70 ovarian cancer cells in culture; format: cell-based; settings: treated in culture with α-TEA
[10] = Aerosol, in nebulizer per mouse: α-TEA 5 mg/d, 9NC 2 µg/d, combination 5 mg+2µg/d

SMILES: Cc1c(C)c2c(c(C)c1OCC(=O)O)CC[C@@](C)(CCC[C@H](C)CCC[C@H](C)CCCC(C)C)O2 [α-TEA, 2,5,7,8-tetramethyl-(2R-(4R,8R,12-trimethyltridecyl)chroman-6-yloxy) acetic acid]
- No. Visible Lung Tumor Foci/Animal (66 cl.4-GFP cells [1]): No visible tumors were seen
- apoptotic cells/field (mean ± S. E.) (66 cl.4-GFP tumors; liposomal α-TEA/aerosol treatment, three tumors): 2.04±0.23 apoptotic cells/field
- mean apoptotic values (TUNEL) increased (66 cl.4-GFP tumors; transplantable syngeneic mouse mammary cancer model, in comparison to controls): 30%
- apoptosis (66 cl.4-GFP cells [2]; 2.5 µg/ml): 5%
- apoptosis (66 cl.4-GFP cells [2]; 5 µg/ml): 6%
- apoptosis (time course) (66 cl.4-GFP cells [2]; 10 µg/ml, 2 days): 20%
- apoptosis (time course) (66 cl.4-GFP cells [2]; 10 µg/ml, 3 days): 35%
- apoptosis (time course) (66 cl.4-GFP cells [2]; 10 µg/ml, 4 days): 47%
- apoptosis (time course) (66 cl.4-GFP cells [2]; 10 µg/ml, 5 days): 58%
- apoptosis (66 cl.4-GFP cells [2]; 10 µg/ml): 34%
- apoptosis (66 cl.4-GFP cells [2]; 20 µg/ml): 50%
- colonies (average ± S. D.) (66 cl.4-GFP cells [3]; 1.25 µg/ml): 98 ± 20 colonies
- colonies (average ± S. D.) (66 cl.4-GFP cells [3]; 2.5 µg/ml): 21 ± 6 colonies
- colonies (66 cl.4-GFP cells [3]; 5 µg/ml): No colonies formed
- colonies (66 cl.4-GFP cells [3]; 10 µg/ml): No colonies formed
- inhibition at 1.25 µg/mL (66 cl.4-GFP cells [3]; Mus musculus, 240 h, 1.25 µg/ml, compared to EtOH control, read-out: decreased colony formation): 30%
- inhibition at 2.5 µg/mL (66 cl.4-GFP cells [3]; Mus musculus, 240 h, 2.5 µg/ml, compared to EtOH control, read-out: decreased colony formation): 85%
- inhibition at 5 µg/mL (66 cl.4-GFP cells [3]; Mus musculus, 240 h, 5 µg/ml, compared to EtOH control, read-out: decreased colony formation): 100%
- long term adverse effects ([4]; non-tumor bearing mice treated by aerosol or gavage for 17 days, kept eleven months): did not show any adverse effects
- body weight ([4]; tumor bearing mice, α-TEA liposome aerosol or gavage in ethanol/peanut oil, 5 mg/mouse daily, versus controls): no significant weight differences; also recorded: No differences in mean body weights
- serum and tissue levels of α-TEA ([5]; 0 hours after treatment ended): found only in the stomach tissue
- serum and tissue levels of α-TEA ([5]; 2 hours after treatment ended): present in the serum and stomach
- serum and tissue levels of α-TEA ([5]; 6 hours after treatment ended): present in the liver and stomach
- serum and tissue levels of α-TEA ([5]; 24 hours after treatment ended): present in the liver and stomach
- Inhibition (%) Metastases Lung (66 cl.4-GFP cells [6]; [10]): 71%
- Inhibition (%) Lung Metastases (number of lung tumor micrometastases reduced) (66 cl.4-GFP cells [6]; EtOH/P Oil, Gavage, 5 mg/d): 62%
- Inhibition (%) Lung Metastases (66 cl.4-GFP cells [6]; Aerosol, 5 mg/d, in comparison to aerosol control): 81%
- Inhibition (%) Lung Metastases (66 cl.4-GFP cells [6]; Gavage, 3 mg/2Xd): 59%
- micrometatstatic lung lesions (66 cl.4-GFP cells [6]; liposomal formulation via gavage, 6 mg compound per day, 21 days, left lung lobe): 21.5 /lung
- mean number of micrometastases (± S. E.) (66 cl.4-GFP cells [6]; liposomal α-TEA/aerosol, left lung lobe, N= 8): 11.4 ± 3.5
- numbers of micrometastases (± S. E.) (66 cl.4-GFP cells [6]; size 5-10 µm): 11.3± 1.8
- numbers of micrometastases (± S. E.) (66 cl.4-GFP cells [6]; size < 5 µm): 6.8±1.5
- numbers of micrometastases (± S. E.) (66 cl.4-GFP cells [6]; size >10 µm): 3.1±1.2
- Inhibition (%) Metastases Lymphnode (66 cl.4-GFP cells [7]; [10]): 94%
- Inhibition (%) Metastases Lymphnode (66 cl.4-GFP cells [7]; Liposomal, Aerosol, 5 mg/d): 94%
- Inhibition (%) Metastases Lymphnode (66 cl.4-GFP cells [7]; Liposomal, Gavage, 3 mg/2Xd): 56%
- average micrometastatic lesions in lymph nodes (66 cl.4-GFP cells [7]; liposome via gavage, 6 mg compound per day, 21 days): 3.1 ±0.8
- reduced tumor growth (MDA-MB-435 GFP FL cells): 68%
- apoptosis [8]: undergo apoptosis
- apoptosis [9]: undergo apoptosis

Source: EP1463487B1, “LIPOSOMAL DELIVERY OF VITAMIN E BASED COMPOUNDS” (RESEARCH DEVELOPMENT FOUNDATION, priority 2001, dated 2003)
